Experimental data taken from publication PMC10385579, “Design, Synthesis, and Biological Evaluation of Indole-2-carboxamides as Potential Multi-Target Antiproliferative Agents” (Pharmaceuticals, 2023).

Legend:
[1] = tested on: pancreatic cancer (Panc-1) cell line; assay: Antiproliferative assay, Panc-1; assay type: cell-based; settings: Homo sapiens, read-out: Antiproliferative Activity IC50 ± SEM, Panc-1
Protocol: 4.2.1.2. Assay for antiproliferative effect
To explore the antiproliferative potential of compounds propidium iodide fluorescence assay was performed using different cell lines such as Panc-1 (pancreas cancer cell line), MCF-7 (breast cancer cell line), HT-29 (colon cancer cell line) and A-549 (epithelial cancer cell line), respectively.
To calculate the total nuclear DNA, a fluorescent dye (propidium iodide, PI) is used which can attach to the DNA, thus offering a quick and precise technique. PI cannot pass through the cell membrane and its signal intensity can be considered as directly proportional to quantity of cellular
DNA. Cells whose cell membranes are damaged or have changed permeability are counted as dead ones. The assay was performed by seeding the cells of different cell lines at a density of 3000-7500 cells/well (in200μl medium) in culture plates followed by incubation for 24h at 37 °C in humidified 5%CO2/95% air atmospheric conditions. The medium was removed; the compounds were added to the plates at 10 μM concentrations (in 0.1% DMSO) in triplicates, followed by incubation for 48h. DMSO (0.1%) was used as control. After incubation, medium was removed followed by the addition of PI (25 μl, 50μg/mL in water/medium) to each well of the plates. At - 80 °C, the plates were allowed to freeze for 24 h, followed by thawing at 25 °C. A fluorometer (Polar-Star BMG Tech) was used to record the readings at excitation and emission wavelengths of 530 and 620 nm for each well. The percentage cytotoxicity of compounds was calculated using […]
Where ATC= Absorbance of treated cells and AC= Absorbance of control. Erlotinib was used as positive control in the assay.

caspase-8 = assay: Caspase-8 level assay in A-549 cells; assay type: cell-based, human; settings: for Caspase-8 Conc: control 0.10; for Caspase-8 Fold Change: vs control
Protocol: See Supplementary Materials.
4.2.6. Caspase-8 activation assay […]
caspase8, and lysed with Cell Extraction Buffer. This lysate was diluted in Standard Diluent Buffer over the range of the assay and measured for human active caspase-8 content. (Cells are Plated in a density of 1.2 – 1.8 × 10,000 cells/well in a vo lume of 100µl complete growth medium + 100 ul of the tested compound per well in a 96-well plate for 24 hours before the enzyme assay for Tubulin.). The absorbance of each microwell was read on a spectro-photometer at 450 nm. A standard curve is prepared from 7human Caspase-8 standard dilutions and human Caspase-8 concentration determined. […]

BRAF^V600E = BRAF^V600E (Mus musculus, UniProt P28028, V585E); assay: BRAF^V600E inhibitory assay
Sequence of BRAF^V600E (P28028 whole entry V585E): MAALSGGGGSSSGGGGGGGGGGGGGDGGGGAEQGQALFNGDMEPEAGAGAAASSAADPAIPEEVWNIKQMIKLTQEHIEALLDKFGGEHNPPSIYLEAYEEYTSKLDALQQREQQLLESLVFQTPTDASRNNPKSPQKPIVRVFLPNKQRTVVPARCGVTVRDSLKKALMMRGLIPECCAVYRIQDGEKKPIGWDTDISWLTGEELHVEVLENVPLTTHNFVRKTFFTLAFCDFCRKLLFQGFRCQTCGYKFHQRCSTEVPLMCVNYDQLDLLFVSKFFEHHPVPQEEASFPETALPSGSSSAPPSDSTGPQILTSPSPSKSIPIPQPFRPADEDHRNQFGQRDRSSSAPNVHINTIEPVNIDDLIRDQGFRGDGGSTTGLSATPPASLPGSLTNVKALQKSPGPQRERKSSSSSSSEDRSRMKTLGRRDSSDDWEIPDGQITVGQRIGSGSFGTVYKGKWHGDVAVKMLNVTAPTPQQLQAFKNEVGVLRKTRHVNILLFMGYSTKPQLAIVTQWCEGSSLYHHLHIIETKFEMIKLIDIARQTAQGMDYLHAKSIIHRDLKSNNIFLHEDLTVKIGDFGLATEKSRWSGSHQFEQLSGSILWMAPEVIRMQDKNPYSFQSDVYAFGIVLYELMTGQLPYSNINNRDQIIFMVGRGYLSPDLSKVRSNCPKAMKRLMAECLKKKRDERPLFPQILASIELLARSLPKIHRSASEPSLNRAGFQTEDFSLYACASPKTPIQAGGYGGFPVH
Protocol: BRAFV600E inhibitory assay
V600E mutant BRAF kinase assay was performed to investigate the activity of tested compounds against BRAF. Mouse full-length GST-tagged BRAFV600E (7.5 ng, Invitrogen, PV3849) was pre-incubated with drug (1 µL) and assay dilution buffer (4 µL) for 60 min at 25 °C. In assay dilution buffer, a solution (5 µL) containing MgCl2 (30 mM), ATP (200 µM), recombinant human full length (200 ng) and N-terminal His-tagged MEK1 (Invitrogen) was added to start the assay, subsequent to incubation for 25 min at 25 °C. The assay was stopped using 5X protein denaturing buffer (LDS) solution (5 µL). To further denature the protein, heat (70° C) was applied for 5 min.
10 µL of each reaction was loaded into the precast plates and electrophoresis was allowed to proceed. After completion of electrophoresis, the front part of the precast gel plate (holding hot ATP) was cut and afterwards cast-off. The dried gel was developed using a phosphor screen.

EGFR = EGFR (Homo sapiens, UniProt P00533); assay: EGFR inhibitory assay
Sequence of EGFR (P00533 669-1210): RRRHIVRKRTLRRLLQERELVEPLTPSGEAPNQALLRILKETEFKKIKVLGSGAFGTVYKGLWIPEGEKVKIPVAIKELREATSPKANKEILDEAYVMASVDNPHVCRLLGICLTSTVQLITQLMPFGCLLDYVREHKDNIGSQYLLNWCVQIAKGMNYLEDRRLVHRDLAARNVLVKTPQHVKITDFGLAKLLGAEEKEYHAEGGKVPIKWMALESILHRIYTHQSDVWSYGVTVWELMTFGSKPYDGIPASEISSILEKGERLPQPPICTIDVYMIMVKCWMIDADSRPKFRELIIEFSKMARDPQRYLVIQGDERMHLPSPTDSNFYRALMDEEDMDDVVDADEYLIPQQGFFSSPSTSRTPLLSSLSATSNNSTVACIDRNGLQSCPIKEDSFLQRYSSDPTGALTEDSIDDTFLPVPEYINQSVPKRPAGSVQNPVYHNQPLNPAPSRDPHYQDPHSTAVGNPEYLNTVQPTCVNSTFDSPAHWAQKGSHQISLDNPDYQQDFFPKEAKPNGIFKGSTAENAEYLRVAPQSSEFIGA

Bcl-2 = Bcl-2 level assay in A-549 cells; assay type: cell-based, human; settings: for Bcl-2 Conc: control 5; for Bcl-2 Fold Reduction: vs control
Protocol: Compounds Va and Vg were explored further for their impact on caspase-8, Bax, and Bacl-2 levels against a human epithelial cancer cell line (A-549) using doxorubicin as a reference. See Supplementary Materials. […]
4.2.8. Bcl-2inhibition assay
Mix all reagents thoroughly without foaming before use. Wash the microwells twice with approximately 300 μL Wash Buffer per well with thorough aspiration of microwell contents between washes. Take caution not to scratch the surface of the microwells. After the last wash, empty the wells and tap microwell strips on absorbent pad or paper towel to remove excess Wash Buffer. Use the microwell strips immediately after washing or place upside down on a wet absorbent paper for not longer than 15 minutes. […] Add 100 μL of Sample […]
Diluent in duplicate to all standard wells and to the blank wells. Prepare standard (1:2 dilution) in duplicate ranging from 32 ng/mL to 0.5 ng/mL. Add 100 μL of Sample Diluent, in duplicate, to the blank wells. Add 80 μL of Sample Diluent, in duplicate, to the sample wells. Add 20 μL of each Sample, in duplicate, to the designated wells. Add 50 μL of diluted biotin-conjugate to all wells, including the blank wells. Cover with a plate cover and incubate at room temperature, on a microplate shaker at 100 rpm if available, for 2 hours. Remove plate cover and empty the wells.
Wash microwell strips 3 times as described in step 2. Add 100 μL of diluted Streptavidin-HRP to all wells, including the blank wells. Cover with a plate cover and incubate at room temperature, on a microplate shaker at 100 rpm if available, for 1 hour. Remove plate cover and empty the wells.
Wash microwell strips 3 times as described in step 2. Proceed to the next step. Pipette 100 μl of mixed TMB Substrate Solution to all wells, including the blanks. Incubate the microwell strips at room temperature (18° to 25°C) for about 15 minutes, if available on a rotator set at 100 rpm.
Avoid direct exposure to intense light. The point, at which the substrate reaction is stopped, is often determined by the ELISA reader. Many ELISA readers record absorbance only up to 2.0
O.D. Therefore, the color development within individual microwells must be watched by the person running the assay and the substrate reaction stopped before positive wells are no longer properly detectable. Stop the enzyme reaction by quickly pipetting 100 μL of Stop Solution into each well, including the blank wells. It is important that the Stop Solution is spread quickly and uniformly throughout the microwells to completely inactivate the enzyme. Results must be read immediately after the Stop Solution is added or within one hour if the microwell strips are stored at 2 - 8°C in the dark. Read absorbance of each microwell on a spectrophotometer using 450 nm as the primary wavelength.

| Structure (SMILES) | IC50 [1] | Caspase-8 Conc (caspase-8) | Caspase-8 Fold Change (caspase-8) | IC50 (BRAF^V600E) | IC50 (EGFR) | Bcl-2 Conc (Bcl-2) | Bcl-2 Fold Reduction (Bcl-2) |
| --- | --- | --- | --- | --- | --- | --- | --- |
| O=C(NCC(c1ccccc1)c1c(-c2ccccc2)[nH]c2ccccc12)c1cc2cc(Cl)ccc2[nH]1 (centres unmarked) [Compound Va, 5-Chloro-N-(2-phenyl-2-(2-phenyl-1H-indol-3-yl)ethyl)-1H-indole-2-carboxamide] | 0.026 ± 0.002 µM | 3.50 ng/mL | 35 | 0.077 ± 0.006 µM | 0.071 ± 0.006 µM | 0.75 ng/mL | 7 |
| CO/C=C/c1c(C(=O)NCC(c2ccccc2)c2c(-c3ccccc3)[nH]c3ccccc23)[nH]c2ccc(Cl)cc12 (centres unmarked) [Compound Vg, (E)-5-Chloro-3-(2-methoxyvinyl)-N-(2-phenyl-2-(2-phenyl-1H-indol-3-yl)ethyl)-1H-indole-2-carboxamide] | 0.03 ± 0.002 µM | 2.20 ng/mL | 22 | 0.083 ± 0.006 µM | 0.079 ± 0.006 µM | 0.85 ng/mL | 6 |
